Earlier results in patent US8871744B2, “Compounds and methods for selectively targeting tumor-associated mucins” (B & G Partyers, LLC, priority 2010, dated 2014).

How the values were obtained:
[1] = test system: normal mammary epithelial cells
[2] = test system: sialomucin complex/rat Muc4; details: transfected MEC, activated in fetal calf serum
NMuMG cells = NMuMG cells stimulated with TGF-β1

Row | SMILES | epithelial to mesenchymal transition stimulated by TGF-β [1] | Muc4 protein expression [2] | morphological changes associated with EMT (NMuMG cells) | phosphorylation of Smad2 (NMuMG cells)
1 | CN[C@@H]1C[C@H]2O[C@@](C)([C@@H]1OC)n1c3ccccc3c3c4c(c5c6ccccc6n2c5c31)C(=O)NC4 [staurosporine] | abrogated | inhibited | – | –
2 | NC(=O)c1ccc(-c2nc(-c3ccc4c(c3)OCO4)c(-c3ccccn3)[nH]2)cc1 [SB431542, 4-[4-(1,3-benzodioxol-5-yl)-5-(2-pyridinyl)-1H-imidazol-2-yl]benzamide] | – | – | inhibited | inhibited
